The text below walks through data of patent publication US6960594B2, “Thiophene and furan 2,5-dicarboxamides useful in the treatment of cancer” (Shire BioChem Inc., priority 1998, dated 2005).

One experiment has as its system HMVEC. In words: Cell proliferation and cytotoxicity MTT assay, HMVEC. To be noted: 72 hours culture. The experiment is classed as cell-based. The procedure:
(§1) The wells of microtiter plates were seeded with 2000 cells/well T24, 2500 cells/well HT29 or 5000 cells/well HMVEC (Cell Systems) in 100 uL, followed by an overnight culture for cell adhesion. The next day, the media is supplemented with 100 uL of 10-fold dilution of compound of interest starting at 10 uM. Following culture for 72 hours, 3-(4,5-dimethyl-2-thiazolyl)-2,5-diphenyltetrazolium bromide (MTT; Sigma) at 2 mg/mL was added to each well (50 uL/well) and further incubated for 4 hours at 37° C. The medium was flicked out and 200 uL of a 1:1 solution of ethanol:acetone followed by 25 uL of glycine buffer (0.1 M glycine, 0.1M NaCl, pH 10.5) is added and the color measured by the absorbance at 570 nm.

The next experiment addresses T1, αvβ5 (Homo sapiens, UniProt P06756+P18084).
T1 construct: Cells HT29, K562, or K562 transfected with αvβ3; endogenous in cells; host or cells: HT29
In words: Cell adhesion assay, HT29 on vitronectin. The experiment is classed as cell-based. The procedure: (§2) The wells of 96-well plates (Immunolon) were coated, by incubation overnight at 4° C., with 5 ug/mL vitronectin, 2 ug/mL osteopontin, or fibronectin or 10 mg/mL BSA in PBS. The protein solution was flicked out and the wells were blocked with 10 mg/mL BSA (0.1 mL) for 1-2 hours at 37° C. […] Cells were lifted with trypsin-EDTA and washed two times with Hank's balanced salt solution minus cations (Sigma) supplemented with 1 mM MgCl2 Cells (75,000 cells/well) were added to coated plates in triplicate and allowed to attach at 37° C. for 1 hour in the presence or absence of specific antibodies (5 ug/mL) or 10-fold dilutions of compounds of interest starting at 10 uM. Nonadherent cells were removed by gentle washing twice with PBS. The adherent cells were solubilized with 1% triton x-100 and detected using a fluorescence plate reader (DYNEX Technologies). The number of attached cells was calculated based upon standard curves for each cell line used in the experiment.

A further experiment addresses T2, GP IIb-IIIa (αIIbβ3) (Homo sapiens, UniProt P05106+P08514).
T2 construct: purchased Calbiochem
In words: Fibrinogen binding to immobilized GP IIb-IIIa (αIIbβ3). The procedure: (§3) The wells of plastic microtiter plates were coated overnight at 4° C. with purified active αIIbβ3 (Calbiochem) or placental αvβ3 at 0.5 ug/mL (100 uL/well) in a buffer containing 150 mM NaCl, 20 mM Tris, pH 7.4, 1 mM MgCl2, 0.2 mM MnCl2, and including 1 mM CaCl2 for αIIbβ3. Blocking of nonspecific sites was achieved by incubating the wells with 35 mg/mL bovine serum albumin (BSA) for at least 2 hours at 37° C. Biotinylated-fibrinogen (10 nM) was added in 0.2 mL binding buffer (100 mM NaCl, 50 mM Tris, pH 7.4, 1 mM MgCl2, 0.2 mM MnCl2 and 1 mg/mL BSA including 1 mM CaCl2 for αIIbβ3) to the wells in triplicate in the absence or presence of increasing concentrations of compounds of interest (0.001-100 uM) and further incubated for 2 hours at 37° C. Nonbound fibrinogen was removed by five washes with binding buffer. Avidin conjugated to alkaline phosphatase (Sigma), diluted in binding buffer, was added and incubated for two hours at 37° C. The plates were washed five times with binding buffer, and after addition of the substrate PNPP (Pierce), the enzyme activity was measured by the absorbance at 405 nm.

Another experiment concerns the target T3, placental αvβ3 (Homo sapiens, UniProt P05106+P06756).
T3 construct: placental αvβ3 at 0.5 ug/mL; from tissue; host or cells: placenta
In words: Fibrinogen binding to immobilized αvβ3. The procedure: as §3

For another experiment, the system named is HT29. In words: Cell proliferation and cytotoxicity MTT assay, HT29. The experiment is classed as cell-based. The procedure: as §1
A further experiment addresses T4, α5β1 (Homo sapiens, UniProt P05556+P08648).
T4 construct: Cells HT29, K562, or K562 transfected with αvβ3; endogenous in cells; host or cells: K562
In words: Cell adhesion assay, K562 on fibronectin. To be noted: K562 cells, adhesion to fibronectin, 1 hour. The experiment is classed as cell-based. The protocol: The wells of 96-well plates (Immunolon) were coated, by incubation overnight at 4° C., with 5 ug/mL vitronectin, 2 ug/mL osteopontin, or fibronectin or 10 mg/mL BSA in PBS. The protein solution was flicked out and the wells were blocked with 10 mg/mL BSA (0.1 mL) for 1-2 hours at 37° C. Cells HT29, K562, or K562 transfected with αvβ3 (Blystone et al., 1994) were loaded with a fluorescent marker, 5-chloromethylfluorescein diacetate (Molecular Probes, Eugene, Oreg.) for 1 hour at 37° C., then incubated in fresh medium without the fluorescent marker for 1 hour. Cells were lifted with trypsin-EDTA and washed two times with Hank's balanced salt solution minus cations (Sigma) supplemented with 1 mM MgCl2 Cells (75,000 cells/well) were added to coated plates in triplicate and allowed to attach at 37° C. for 1 hour in the presence or absence of specific antibodies (5 ug/mL) or 10-fold dilutions of compounds of interest starting at 10 uM. Nonadherent cells were removed by gentle washing twice with PBS. The adherent cells were solubilized with 1% triton x-100 and detected using a fluorescence plate reader (DYNEX Technologies). The number of attached cells was calculated based upon standard curves for each cell line used in the experiment. Non-specific cell attachment (attachment to wells coated with BSA) was always less than 5%.

A further experiment has as its target T5, αvβ3 (Homo sapiens, UniProt P05106+P06756).
T5 construct: expressed in transfected cells; host or cells: K562
In words: Cell adhesion assay, K562-tr on osteopontin. The experiment is classed as cell-based. The procedure:
as §2

Experiment [1] deals with Chick chorioallantoic membrane (CAM) capillary formation driven by VPF/VEGF165. The experiment in a line: Chick chorioallantoic membrane (CAM) mesh assay. To be noted: significant if >25%. The experiment is classed as in vivo, chicken. The procedure:
Fertilized white leghorn chicken eggs (SPAFAS Inc., Norwich, Conn.) were received at day 0 and incubated for 3 days at 37 C with constant humidity. On day 3, eggs were rinsed with 70% ethanol and opened into 100 mm^2 tissue culture coated Petri dishes under aseptic conditions. The embryos were then returned to a humidified 38 C incubator for 7-9 additional days.
Vitrogen (Collagen Biomaterials, Palo Alto, Calif.) at a final concentration of 0.73 mg/mL and Matrigel (Becton Dickinson, Bedford, Mass.) at a final concentration of 10 mg/mL was directly pipetted onto Nylon meshes with 250 μm^2 openings which were cut into 4 mm×4 mm squares and autoclaved. Polymerization of meshes were under aseptic conditions, on bacteriological Petri dishes. The polymerization conditions for each substrate were identical; after mixing with or without 250 μg of VPF/VEGF165 (Peprotech, Rocky Hill, N.J.) and/or compounds of interest, 40 μL were pipetted onto each mesh in a bacteriological Petri dish. The Petri dish was placed in a humidified 37 C incubator with 5% CO2 for 30 minutes to allow polymerization followed by an incubation at 4° C. for 2 hours.
In a tissue culture enclosure, meshes were placed onto the periphery of the CAM of a day 12-14 embryo, excluding areas containing major vessels. The embryos were then returned to the humidified 38° C. incubator with 3% CO2 for 24 to 48 additional hours.
Embryos were removed from the incubator and meshes were viewed under a dissecting microscope for gross evaluation. Injection of 400 μL FITC dextran, MW 2,000,000 (Sigma, St. Louis, Mo.) through glass microcapillary tubes by infusion into the umbilical vein was performed at a rate of 200 μl per minute. The FITC dextran was allowed to circulate for 5 minutes and 3.7% formaldehyde in PBS was applied directly on each mesh. The embryos were then incubated at 40° C. for 5 minutes and the meshes were dissected off the CAM and fixed in 3.7% formaldehyde for 10 minutes to overnight.
After fixation, meshes were mounted on slides with 90% glycerol in PBS and visualized on an inverted fluorescence microscope. A Nikon Diaphot with a Sony DXC-151A camera attached to the side port was used for capture of images and analysis was with the NIH Image 1.61 software program. For each mesh, 5 random staggered images (approximately 600 μm each) were captured. The areas of high intensity were highlighted and measured. Results are expressed as ability to suppress capillary formation after subtraction from negative control. Values were calculated as a inhibition, considering 100% the capillary density achieved by VPF in the presence of vitrogen alone minus the bakground levels in the absence of VPF. Negative values indicated angiogenic stimulation above the VPF positive control.

Setting [2] is: Homo sapiens, HT-29, 72 hours culture.

Read-outs that look alike come from different tables or passages of the source.

T4 sequence (P08648 42-894 limits assumed): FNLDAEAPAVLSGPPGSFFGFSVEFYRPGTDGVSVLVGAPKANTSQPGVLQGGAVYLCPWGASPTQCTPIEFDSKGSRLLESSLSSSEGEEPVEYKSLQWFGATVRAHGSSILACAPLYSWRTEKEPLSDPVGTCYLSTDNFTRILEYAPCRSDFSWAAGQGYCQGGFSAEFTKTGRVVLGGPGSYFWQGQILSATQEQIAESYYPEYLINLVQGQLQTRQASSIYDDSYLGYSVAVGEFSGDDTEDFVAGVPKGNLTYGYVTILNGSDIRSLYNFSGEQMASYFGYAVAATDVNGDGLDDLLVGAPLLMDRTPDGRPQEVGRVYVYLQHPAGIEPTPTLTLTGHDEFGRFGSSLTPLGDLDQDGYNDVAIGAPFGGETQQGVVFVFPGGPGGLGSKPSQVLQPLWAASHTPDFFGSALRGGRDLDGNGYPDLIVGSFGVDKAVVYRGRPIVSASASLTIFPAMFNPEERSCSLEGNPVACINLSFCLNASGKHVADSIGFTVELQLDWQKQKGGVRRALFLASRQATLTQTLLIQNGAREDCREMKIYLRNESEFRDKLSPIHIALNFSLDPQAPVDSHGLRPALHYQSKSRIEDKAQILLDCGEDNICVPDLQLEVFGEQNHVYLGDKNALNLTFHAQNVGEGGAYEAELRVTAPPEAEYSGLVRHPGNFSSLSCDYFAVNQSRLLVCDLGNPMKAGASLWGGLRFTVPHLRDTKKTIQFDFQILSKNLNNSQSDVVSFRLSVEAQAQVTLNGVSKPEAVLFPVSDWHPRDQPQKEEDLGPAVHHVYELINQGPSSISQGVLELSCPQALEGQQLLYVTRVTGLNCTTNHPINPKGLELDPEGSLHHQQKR
T4 sequence (P08648 895-1049 partner limits assumed): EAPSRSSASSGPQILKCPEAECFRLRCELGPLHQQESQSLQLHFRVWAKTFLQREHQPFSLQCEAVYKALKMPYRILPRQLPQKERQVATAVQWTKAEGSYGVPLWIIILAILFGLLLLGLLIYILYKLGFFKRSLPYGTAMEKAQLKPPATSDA
T4 sequence (P05556 21-798): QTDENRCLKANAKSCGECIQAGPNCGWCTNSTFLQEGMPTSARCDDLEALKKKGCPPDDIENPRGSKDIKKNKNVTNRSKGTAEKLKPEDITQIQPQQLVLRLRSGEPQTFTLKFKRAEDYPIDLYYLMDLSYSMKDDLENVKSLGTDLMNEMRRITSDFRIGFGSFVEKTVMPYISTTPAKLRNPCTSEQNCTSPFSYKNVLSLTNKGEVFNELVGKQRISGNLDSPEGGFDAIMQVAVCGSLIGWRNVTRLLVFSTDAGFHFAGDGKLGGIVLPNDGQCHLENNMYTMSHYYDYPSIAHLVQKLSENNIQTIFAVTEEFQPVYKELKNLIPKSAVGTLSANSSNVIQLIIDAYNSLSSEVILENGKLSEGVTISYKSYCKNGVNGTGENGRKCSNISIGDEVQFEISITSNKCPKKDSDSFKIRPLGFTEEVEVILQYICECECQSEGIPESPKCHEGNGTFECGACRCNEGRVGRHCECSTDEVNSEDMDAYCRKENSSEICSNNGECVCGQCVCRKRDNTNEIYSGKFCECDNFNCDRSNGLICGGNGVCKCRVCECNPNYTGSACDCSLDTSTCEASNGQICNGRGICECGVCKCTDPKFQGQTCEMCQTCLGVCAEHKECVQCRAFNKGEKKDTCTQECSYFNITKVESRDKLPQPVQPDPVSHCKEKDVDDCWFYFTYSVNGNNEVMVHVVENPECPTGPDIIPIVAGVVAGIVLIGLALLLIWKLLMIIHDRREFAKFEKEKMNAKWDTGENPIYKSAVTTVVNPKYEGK
T2 sequence (P08514 32-887 limits assumed): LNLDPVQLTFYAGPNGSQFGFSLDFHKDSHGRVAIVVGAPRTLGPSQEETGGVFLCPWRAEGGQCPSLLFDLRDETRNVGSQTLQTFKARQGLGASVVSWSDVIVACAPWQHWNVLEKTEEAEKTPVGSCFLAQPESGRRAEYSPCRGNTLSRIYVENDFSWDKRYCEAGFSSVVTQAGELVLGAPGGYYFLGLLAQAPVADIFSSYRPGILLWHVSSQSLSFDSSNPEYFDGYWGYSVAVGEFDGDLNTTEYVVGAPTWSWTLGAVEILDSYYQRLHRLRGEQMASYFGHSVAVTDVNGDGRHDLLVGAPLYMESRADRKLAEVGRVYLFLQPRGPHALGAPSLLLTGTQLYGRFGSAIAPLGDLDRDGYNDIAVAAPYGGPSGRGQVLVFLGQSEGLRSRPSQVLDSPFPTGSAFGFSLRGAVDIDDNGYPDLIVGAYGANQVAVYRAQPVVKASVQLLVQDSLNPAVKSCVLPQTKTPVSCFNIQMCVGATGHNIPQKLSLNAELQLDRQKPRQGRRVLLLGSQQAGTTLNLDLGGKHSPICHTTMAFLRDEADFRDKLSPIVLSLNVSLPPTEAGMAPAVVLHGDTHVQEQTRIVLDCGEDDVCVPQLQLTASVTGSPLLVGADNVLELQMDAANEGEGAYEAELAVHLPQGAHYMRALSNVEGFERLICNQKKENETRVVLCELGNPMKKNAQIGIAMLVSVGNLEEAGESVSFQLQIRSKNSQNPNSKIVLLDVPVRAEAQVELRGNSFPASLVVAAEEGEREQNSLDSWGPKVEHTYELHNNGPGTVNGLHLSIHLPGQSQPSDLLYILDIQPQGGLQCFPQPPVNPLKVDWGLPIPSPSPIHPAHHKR
T2 sequence (P08514 891-1039 partner limits assumed): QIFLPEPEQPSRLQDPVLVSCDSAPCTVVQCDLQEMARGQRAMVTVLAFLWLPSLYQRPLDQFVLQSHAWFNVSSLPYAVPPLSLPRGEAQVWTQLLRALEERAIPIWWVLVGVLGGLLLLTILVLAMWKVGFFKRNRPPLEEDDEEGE
T2 sequence (P05106 27-788): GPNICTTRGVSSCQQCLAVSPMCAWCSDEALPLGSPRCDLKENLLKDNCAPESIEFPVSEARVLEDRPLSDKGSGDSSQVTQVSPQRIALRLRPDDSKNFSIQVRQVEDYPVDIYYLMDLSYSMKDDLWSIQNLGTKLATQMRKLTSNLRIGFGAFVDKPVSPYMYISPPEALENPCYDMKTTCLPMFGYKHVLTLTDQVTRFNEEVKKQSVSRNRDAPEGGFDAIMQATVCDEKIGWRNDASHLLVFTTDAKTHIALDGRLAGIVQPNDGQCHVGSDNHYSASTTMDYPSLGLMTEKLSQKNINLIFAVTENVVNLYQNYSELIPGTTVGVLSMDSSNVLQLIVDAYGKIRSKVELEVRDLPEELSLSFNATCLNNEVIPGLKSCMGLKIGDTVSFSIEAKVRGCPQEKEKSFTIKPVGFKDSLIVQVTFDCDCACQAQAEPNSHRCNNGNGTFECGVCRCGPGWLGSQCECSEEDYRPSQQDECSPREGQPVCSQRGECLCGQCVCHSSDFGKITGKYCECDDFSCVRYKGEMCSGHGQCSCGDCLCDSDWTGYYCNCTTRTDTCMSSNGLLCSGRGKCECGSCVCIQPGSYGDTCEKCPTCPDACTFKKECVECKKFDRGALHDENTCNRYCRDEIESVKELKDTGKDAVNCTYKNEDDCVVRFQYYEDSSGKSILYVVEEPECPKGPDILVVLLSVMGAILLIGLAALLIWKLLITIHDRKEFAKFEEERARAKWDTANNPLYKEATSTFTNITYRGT
T5 sequence (P06756 31-889 limits assumed): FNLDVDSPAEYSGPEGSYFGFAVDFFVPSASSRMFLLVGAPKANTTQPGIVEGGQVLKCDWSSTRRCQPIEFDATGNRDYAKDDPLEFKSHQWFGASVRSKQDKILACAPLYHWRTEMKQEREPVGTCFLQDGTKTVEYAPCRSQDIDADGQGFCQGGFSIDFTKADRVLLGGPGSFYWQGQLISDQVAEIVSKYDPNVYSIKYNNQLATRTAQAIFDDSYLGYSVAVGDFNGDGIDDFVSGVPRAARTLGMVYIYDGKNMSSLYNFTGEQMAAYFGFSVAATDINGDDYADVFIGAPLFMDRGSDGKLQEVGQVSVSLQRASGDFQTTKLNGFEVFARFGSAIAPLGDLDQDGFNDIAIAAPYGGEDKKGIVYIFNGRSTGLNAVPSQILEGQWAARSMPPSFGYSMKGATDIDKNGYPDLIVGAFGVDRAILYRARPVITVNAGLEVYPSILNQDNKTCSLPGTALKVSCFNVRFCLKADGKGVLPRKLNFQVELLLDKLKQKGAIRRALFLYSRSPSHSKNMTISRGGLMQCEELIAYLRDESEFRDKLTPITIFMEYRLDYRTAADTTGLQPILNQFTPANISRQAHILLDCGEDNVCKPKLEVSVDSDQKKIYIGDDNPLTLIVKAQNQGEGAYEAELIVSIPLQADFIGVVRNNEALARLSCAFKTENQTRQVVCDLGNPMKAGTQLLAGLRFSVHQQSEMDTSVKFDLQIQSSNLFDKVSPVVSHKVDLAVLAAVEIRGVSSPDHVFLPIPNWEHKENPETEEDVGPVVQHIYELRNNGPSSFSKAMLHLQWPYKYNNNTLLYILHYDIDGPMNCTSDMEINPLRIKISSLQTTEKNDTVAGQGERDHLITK
T5 sequence (P06756 891-1048 partner limits assumed): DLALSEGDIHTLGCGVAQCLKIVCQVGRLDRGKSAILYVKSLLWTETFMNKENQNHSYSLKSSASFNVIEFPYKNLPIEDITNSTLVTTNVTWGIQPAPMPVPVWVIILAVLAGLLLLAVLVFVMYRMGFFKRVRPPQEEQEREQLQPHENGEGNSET
T5 sequence (P05106 27-788): as the sequence (P05106 27-788) above
T3 sequence (P06756 31-889 limits assumed): as the sequence (P06756 31-889 limits assumed) above
T3 sequence (P06756 891-1048 partner limits assumed): as the sequence (P06756 891-1048 partner limits assumed) above
T3 sequence (P05106 27-788): as the sequence (P05106 27-788) above

On to `Cl.N=C(N)NCCNC(=O)c1ccc(C(=O)NC[C@H](NS(=O)(=O)c2ccccc2)C(=O)O)o1` [Compound XXI, hydrochloride], for which the IC50 in the experiment on HMVEC (HMVEC) was 8900 nM; against αvβ5, 5400 nM; on GP IIb-IIIa (αIIbβ3) it was 931 nM; on placental αvβ3, 45 nM; in the experiment on HT29 (setting [2]), > 10000 nM; at α5β1, > 10000 nM. Half-maximal inhibition against αvβ3 (IC50) required 2300 nM.
“(2S)2-Benzenesulfonylamino-3-[5-(2-guanidinyl-ethylcarbamoyl)-thiophen-2-carbonyl]-amino propionic acid hydrochloride salt [Compound XI]”: the IC50 with HMVEC is 870 nM; on αvβ5 (HT29 cells, adhesion to vitronectin, 1 hour, read-out: IC50 HT29 Vitronectin (αvβ5)) it was 210 nM; on GP IIb-IIIa (αIIbβ3) (biotinylated-fibrinogen (10 nM) binding to immobilized αIIbβ3, read-out: IC50 αIIbβ3) it was 0.31 nM; on placental αvβ3 (biotinylated-fibrinogen (10 nM) binding to immobilized αvβ3, read-out: IC50 αvβ3), 0.58 nM; in the experiment with HT29 (72 hours culture), 9900 nM; at α5β1 it was 5300 nM. In addition, the 50% inhibitory concentration (IC50) at αvβ3 (K562 transfected with αvβ3, adhesion to osteopontin, 1 hour, read-out: IC50 K562-tr Osteopontin (αvβ3)) amounted to 87 nM. Also, the “% of inhibition at 33 μg/mesh in the presence of VEGF” value in experiment [1] was 38%.
For `N=C(N)NCCNC(=O)c1ccc(C(=O)NCC(Nc2ncccn2)C(=O)O)s1.O=C(O)C(F)(F)F.O=C(O)C(F)(F)F` (centres unmarked) [Compound XXX, 3-{[5-(2-guanidino-ethylcarbamoyl)-thiophene-2-carbonyl]-amino}-2-(pyrimidin-2-ylamino)-propionic acid bis trifluoroacetic acid salt], the IC50 was > 10000 nM in the experiment with HMVEC (HMVEC); > 10000 nM against αvβ5; 690 nM at GP IIb-IIIa (αIIbβ3); 150 nM at placental αvβ3; > 10000 nM in the experiment with HT29 (setting [2]); > 10000 nM on α5β1. Also, it took 3400 nM to reach half-maximal inhibition against αvβ3 (IC50). Besides, the “% of inhibition at 33 μg/mesh in the presence of VEGF” value in experiment [1] came out at 31%.
